Assay results from patent US20240254072A1, “DERIVATIVES OF CANNABIDIOL-C4 FOR THE TREATMENT OF EPILEPSY” (priority 2021, published 2024).
Where “and” joins values, the source holds several entries; their conditions need not be identical. Equal entries are not always repeated. Where two headings read alike, the source gives them in different places.

What was measured:
[1] = tested on: tonic hind limb extensor convulsions induced by electroshock (generalised seizure); assay: mini-MEST (maximal electroshock seizure threshold) test in the mouse; conditions: for % change from vehicle (CC50) / CC50 +/- SEM (current producing tonic hind limb extension in 50% of animals): mouse, i.p., 30 min post dose, diazepam 2.5 mg/kg, Compound I 100 mg/kg, Compound II 150 mg/kg; for CC50 +/- SEM (current producing tonic hind limb extension in 50% of animals): N=6
Method: The maximal electroshock seizure threshold (MEST) test is widely utilized preclinically to evaluate pro- or anti-convulsant properties of test compounds (Loscher et al., 1991).
In the MEST test the ability of a drug to alter the seizure threshold current required to induce hind limb tonic extensor convulsions is measured according to an “up and down” method of shock titration (Kimball et al., 1957). An increase in seizure threshold is indicative of anti-convulsant effect.
The ability of a test compound to alter the stimulus intensity, expressed as current (mA), required to induce the presence of tonic hind limb extensor convulsions, is assessed in the MEST.
Naïve mice were acclimatised to the procedure room in their home cages for up to 7 days, with food and water available ad libitum.
All animals were weighed at the beginning of the study and randomly assigned to treatment groups based on a mean distribution of body weight across groups.
The first animal within a treatment group was given a shock at the expected or estimated CC50 current. For subsequent animals, the current was lowered or raised depending on the convulsions outcome from the preceding animal in log scale intervals.
Data generated from each treatment group were used to calculate the CC50±SEM values for the treatment group.
Vehicle: (5% ethanol, 10% solutol in 85% Saline) was prepared as follows: 1 mL of ethanol, 2 mL of solutol were warmed to 60° ° C., in 17 mL of saline (1:2:17).
The test compounds, described herein as Compound I and Compound II, are as shown as Formula I and Formula II respectively. Test compounds were administered at 100 mg/kg (i.p.) for Compound I and 150 mg/kg (i.p.) for Compound II in a 1:2:17 ethanol:solutol:0.9% saline formulation.
The data for each treatment group were recorded as the number of +'s and 0's at each current level employed and this information is then used to calculate the CC50 value (current required for 50% of the animals to show seizure behaviour)±standard error.
Test compound effects were also calculated as percentage change in CC50 from the vehicle control group.
Significant difference between drug-treated animals and controls were assessed according to Litchfield and Wilcoxon (1949).

inflammation = conditions: WO 01/95899; cited from earlier work
[2] = tested on: Maximal Electroshock generalised seizures; conditions: data of EP3160457 / WO 2020/104796; cited from earlier work
[3] = tested on: pentylenetetrazole-induced generalised seizures; conditions: data of EP3160457; cited from earlier work
[4] = range of toxicology screens, WO 2020/104796; cited from earlier work
[5] = Bioanalysis of plasma and brain concentrations by UPLC-MS/MS; type: in vivo, mice; conditions: mouse, i.p., 30 min post-dose, Compound I 100 mg/kg, Compound II 150 mg/kg; for Brain concentration / Brain concentration at 30 min: Location Brain; for Plasma Conc. (individual animal) / concentration at 30 min: Location Plasma; for Brain concentration at 30 min / concentration at 30 min: in vivo
Method: Each animal was humanely killed immediately after production of a convulsion by destruction of the brain from striking the cranium, followed by the confirmation of permanent cessation of the circulation from decapitation under The Humane Killing of Animals under Schedule 1 to the Animals (Scientific Procedures) Act 1986. Terminal blood and brain collection were performed following decapitation.
Blood was collected in Lithium-heparin tubes and centrifuged at 4 °C for 10 minutes at 1500× g. The resulting plasma was removed (>100 μL) and split into 2 aliquots of 0.5 mL Eppendorf tubes containing 10 μL of ascorbic acid (100 mg/mL) for stabilisation. Brains were removed, washed in saline and halved. Each half was placed into separate 2 mL screw cap cryovials, weighed and frozen on cardice.
Bioanalysis experiments were carried out to determine the quantitative measurement of Compound I and Compound II in plasma and brain.
Six mice were dosed with Compound I at 100 mg/kg and another six with Compound II at 150 mg/kg via intraperitoneal (i.p) injection. Sample analysis was performed 30 min post-dose using a sample volume of 40 μL. Following addition of internal standard (in acetonitrile) and Isopropanol samples were protein precipitated by addition of acetonitrile. Samples were centrifuged and supernatant transferred to a clean 96-well plate (with addition of Tween to minimise non-specific binding to plate materials), evaporated to dryness then reconstituted in suitable solvent. The extracts quantified by ultraperformance liquid chromatography-tandem mass spectrometry (UPLC-MS/MS).

[6] = read-out: Mean Plasma Conc., Location Brain
[7] = read-out: Plasma Conc., Location Brain (individual animal)
[8] = read-out: Plasma Conc. (individual animal)

For `CN1C(=O)CN=C(c2ccccc2)c2cc(Cl)ccc21` [Diazepam, diazepam, reference compound], the “% change from vehicle (CC50)” value [1] was 291%.

In the case of `C=C(C)[C@@H]1CCC(CO)=C[C@H]1c1c(O)cc(CCCCC)cc1O` [Compound 7-OH-CBD, 7-hydroxy-cannabidiol], the “effect in model of inflammation” value (inflammation) is listed as “found to be effective”, the “anticonvulsant effect in MES model” value [2] is listed as “anticonvulsant effects” and the “anticonvulsant effect in PTZ model” value [3] is listed as “anticonvulsant effects”.

For `C=C(C)[C@@H]1CCC(C)=C[C@H]1c1c(O)cc(CCCC)cc1O` [CBD-C4, Cannabidiol-C4], the “anticonvulsant effect in MES model” value [2] is given as “Therapeutic efficacy was shown” and the toxicology [4] is given as “acceptable toxicology”.

With `C=C(C)[C@@H]1CCC(C(=O)O)=C[C@H]1c1c(O)cc(CCCC)cc1O` [Compound II, (1R,6R)-4′-butyl-2′,6′-dihydroxy-6-(prop-1-en-2-yl)-1,4,5,6-tetrahydro-[1,1′-biphenyl]-3-carboxylic acid] the Brain concentration [5] was 22.356 µM and 22.956 µM and 15.408 µM and 23.332 µM and 19.363 µM, the “Plasma Conc. (individual animal)” value [5] was 856.643 µM and 1008.984 µM and 1144.841 µM and 1209.706 µM and 1141.405 µM and the Brain concentration at 30 min [5, 6] was 19.8 µM. For the same molecule, the Brain concentration at 30 min [5, 7] was 15.7 µM, the concentration at 30 min ([5]; read-out: Mean Plasma Conc.) was 1050 µM and the concentration at 30 min [5, 8] was 960 µM. The “% change from vehicle (CC50)” value [1] was less than 72% and the “CC50 +/- SEM (current producing tonic hind limb extension in 50% of animals)” value [1] was less than 43 mA.

With `C=C(C)[C@@H]1CCC(CO)=C[C@H]1c1c(O)cc(CCCC)cc1O` [Compound I, (1′R,2′R)-4-butyl-5′-(hydroxymethyl)-2′-(prop-1-en-2-yl)-1′,2′,3′,4′-tetrahydro-[1,1′-biphenyl]-2,6-diol] the Brain concentration [5] was 122.248 µM and 113.886 µM and 107.349 µM and 125.595 µM and 129.784 µM, the “Plasma Conc. (individual animal)” value [5] was 252.278 µM and 248.66 µM and 242.732 µM and the Brain concentration at 30 min [5, 6] was 122 µM. For the same molecule, the Brain concentration at 30 min [5, 7] was 131 µM, the concentration at 30 min ([5]; read-out: Mean Plasma Conc.) was 251 µM and the concentration at 30 min [5, 8] was 264 µM. The “occurrence of tonic hindlimb convulsions in treatment group” value ([1]; Compound I 100 mg/kg i.p., 30 min, 6 animals) was “did not have any convulsions” and the “CC50 +/- SEM (current producing tonic hind limb extension in 50% of animals)” value [1] was greater than 131 mA.

In the case of `C=C(C)[C@@H]1CCC(CO)=C[C@H]1c1c(O)cc(CCC)cc1O` [Compound 7-OH-CBDV, 7-hydroxy-cannabidivarin], the “anticonvulsant effect in MES model” value [2] is listed as “anticonvulsant effects” and the “anticonvulsant effect in PTZ model” value [3] is listed as “anticonvulsant effects”.
